Laboratory results reported in ChEMBL document CHEMBL4130413, “1-Aryl-1H- and 2-aryl-2H-1,2,3-triazole derivatives blockade P2X7 receptor in vitro and inflammatory response in vivo” (Eur J Med Chem, 2017).
One block for each compound: values may come before it. Activity calls are given as the source filed them. No cut-off for these calls is given here.

Columns and labels:
[1] = biological target: T1, P2X purinoceptor 7 (Homo sapiens) (UniProt Q99572); assay: Antagonist activity at human P2X7 receptor expressed in HEK293 cells assessed as inhibition of ATP-induced ethidium iodide uptake at 750 nM preincubated for 10 mins followed by ATP addition measured after 20 mins by FLIPR assay relative to 1 mM ATP; assay type: cell-based
T1 sequence (whole entry): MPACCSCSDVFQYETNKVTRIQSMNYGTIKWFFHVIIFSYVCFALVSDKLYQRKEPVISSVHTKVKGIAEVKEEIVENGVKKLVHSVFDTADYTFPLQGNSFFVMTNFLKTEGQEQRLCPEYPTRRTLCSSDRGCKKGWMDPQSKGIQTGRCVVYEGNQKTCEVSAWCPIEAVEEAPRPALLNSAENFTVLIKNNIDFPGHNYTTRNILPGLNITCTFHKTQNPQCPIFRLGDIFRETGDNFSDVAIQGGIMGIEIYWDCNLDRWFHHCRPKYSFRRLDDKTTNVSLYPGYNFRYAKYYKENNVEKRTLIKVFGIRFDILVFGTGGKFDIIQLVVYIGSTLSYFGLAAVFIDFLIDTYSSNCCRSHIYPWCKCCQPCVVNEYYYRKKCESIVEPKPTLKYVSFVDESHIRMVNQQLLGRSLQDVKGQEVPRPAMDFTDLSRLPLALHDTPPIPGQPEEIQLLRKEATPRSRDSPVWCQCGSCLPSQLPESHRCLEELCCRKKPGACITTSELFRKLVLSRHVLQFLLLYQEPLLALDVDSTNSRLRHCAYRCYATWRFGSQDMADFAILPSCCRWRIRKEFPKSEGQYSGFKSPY

P2X purinoceptor 7 [2] = biological target: T2, P2X purinoceptor 7 (Mus musculus, UniProt Q9Z1M0); assay: Antagonist activity at P2X7 receptor in Swiss mouse peritoneal macrophages assessed as inhibition of BzATP-induced ethidium iodide uptake after 30 mins by spectrofluorometric analysis
T2 sequence (Q9Z1M0 whole entry): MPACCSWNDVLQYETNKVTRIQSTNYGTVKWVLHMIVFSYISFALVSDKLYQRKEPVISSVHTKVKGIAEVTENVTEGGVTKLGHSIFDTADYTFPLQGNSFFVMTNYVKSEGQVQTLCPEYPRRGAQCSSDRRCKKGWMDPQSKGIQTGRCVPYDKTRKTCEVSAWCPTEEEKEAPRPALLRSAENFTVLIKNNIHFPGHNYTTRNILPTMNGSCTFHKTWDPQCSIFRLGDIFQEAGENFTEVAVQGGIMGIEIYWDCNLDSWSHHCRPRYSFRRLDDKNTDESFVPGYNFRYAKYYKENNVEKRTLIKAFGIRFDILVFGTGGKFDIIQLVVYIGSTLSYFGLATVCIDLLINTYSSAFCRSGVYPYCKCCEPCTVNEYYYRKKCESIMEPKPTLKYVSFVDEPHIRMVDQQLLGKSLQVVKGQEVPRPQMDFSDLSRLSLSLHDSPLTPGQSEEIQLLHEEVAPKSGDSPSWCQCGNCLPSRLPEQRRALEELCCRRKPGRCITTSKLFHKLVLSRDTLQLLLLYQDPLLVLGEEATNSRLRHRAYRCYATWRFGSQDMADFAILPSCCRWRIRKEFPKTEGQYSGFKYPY

P2X purinoceptor 7 [3] = biological target: T3, P2X purinoceptor 7 (Homo sapiens, UniProt Q99572); assay: Antagonist activity at human P2X7 receptor expressed in HEK293 cells assessed as inhibition of ATP-induced ethidium iodide uptake preincubated for 10 mins followed by ATP addition measured after 20 mins by spectrofluorometric analysis; assay type: cell-based
T3 sequence (Q99572 whole entry): T1 sequence (whole entry)

[4] = biological target: P2X purinoceptor 7 (Mus musculus) (UniProt Q9Z1M0); assay: Antagonist activity at P2X7 receptor in Swiss mouse peritoneal macrophages assessed as inhibition of ATP-induced propidium iodide uptake at 750 nM after 30 mins by FLIPR assay relative to 1 mM ATP
Peritoneal macrophage [5] = assay: Toxicity in Swiss mouse peritoneal macrophages assessed as LDH release at 750 nM after 60 mins relative to 0.05% Triton X-100; assay type: cell-based; settings: 1 h, 0.75 µM
P2X purinoceptor 7 [6] = biological target: T2, P2X purinoceptor 7; assay: Antagonist activity at P2X7 receptor in Swiss mouse peritoneal macrophages assessed as inhibition of BzATP-induced current at holding potential of -60 mV preincubated for 5 mins followed by BzATP addition measured after 5 mins by Whole cell patch-clamp analysis
P2X purinoceptor 7 [7] = biological target: T2, P2X purinoceptor 7; assay: (§1) Antagonist activity at P2X7 receptor in Swiss mouse peritoneal macrophages assessed as inhibition of ATP-induced propidium iodide uptake after 25 mins by flow cytometric analysis
[8] = biological target: T4, P2X purinoceptor 7 (Mus musculus) (UniProt Q9Z1M0); assay: as §1
T4 sequence (whole entry): T2 sequence (Q9Z1M0 whole entry)

P2X purinoceptor 7 [9] = biological target: T2, P2X purinoceptor 7; assay: Antagonist activity at P2X7 receptor in Swiss mouse peritoneal macrophages assessed as inhibition of ATP-induced current at holding potential of -60 mV preincubated for 5 mins followed by ATP addition measured after 5 mins by Whole cell patch-clamp analysis
Peritoneal macrophage [10] = assay: Toxicity in Swiss mouse peritoneal macrophages assessed as LDH release at 10 uM after 60 mins relative to 0.05% Triton X-100; assay type: cell-based; settings: 1 h
[11] = biological target: T4, P2X purinoceptor 7 (Mus musculus); assay: Antagonist activity at mouse P2X7 receptor expressed in HEK293 cells assessed as inhibition of ATP-induced ethidium iodide uptake at 10 uM preincubated for 10 mins followed by ATP addition measured after 20 mins by FLIPR assay relative to 1 mM ATP; assay type: cell-based
[12] = Cytotoxicity against Swiss mouse peritoneal macrophages after 24 hrs by LDH-release assay; assay type: cell-based, Peritoneal macrophage
[13] = biological target: T1, P2X purinoceptor 7 (Homo sapiens); assay: Antagonist activity at human P2X7 receptor expressed in HEK293 cells assessed as inhibition of ATP-induced ethidium iodide uptake at 10 uM preincubated for 10 mins followed by ATP addition measured after 20 mins by FLIPR assay relative to 1 mM ATP; assay type: cell-based
[14] = biological target: P2X purinoceptor 7 (Mus musculus) (UniProt Q9Z1M0); assay: Antagonist activity at P2X7 receptor in Swiss mouse peritoneal macrophages assessed as inhibition of ATP-induced propidium iodide uptake at 10 uM after 30 mins by FLIPR assay relative to 1 mM ATP
P2X purinoceptor 7 [15] = biological target: T3, P2X purinoceptor 7; assay: Antagonist activity at human P2X7 receptor expressed in human 1321N1 cells assessed as reduction in agonist-induced intracellular Ca2+ levels preincubated for 3 mins followed by agonist addition measured up to 2 mins by Fluo-4 dye-based FLIPR assay; assay type: cell-based
P2X purinoceptor 7 [16] = biological target: T3, P2X purinoceptor 7; assay: Antagonist activity at human P2X7 receptor expressed in human THP1 cells assessed as reduction in BzATP-induced pore formation by measuring YO-PRO uptake by FLIPR assay; assay type: cell-based
P2X purinoceptor 7 [17] = biological target: P2X purinoceptor 7 (Rattus norvegicus, UniProt Q64663); assay: Antagonist activity at rat P2X7 receptor expressed in human 1321N1 cells assessed as reduction in agonist-induced intracellular Ca2+ levels preincubated for 3 mins followed by agonist addition measured up to 2 mins by Fluo-4 dye-based FLIPR assay; assay type: cell-based
Sequence of P2X purinoceptor 7 (Rattus norvegicus, UniProt Q64663) (Q64663 whole entry): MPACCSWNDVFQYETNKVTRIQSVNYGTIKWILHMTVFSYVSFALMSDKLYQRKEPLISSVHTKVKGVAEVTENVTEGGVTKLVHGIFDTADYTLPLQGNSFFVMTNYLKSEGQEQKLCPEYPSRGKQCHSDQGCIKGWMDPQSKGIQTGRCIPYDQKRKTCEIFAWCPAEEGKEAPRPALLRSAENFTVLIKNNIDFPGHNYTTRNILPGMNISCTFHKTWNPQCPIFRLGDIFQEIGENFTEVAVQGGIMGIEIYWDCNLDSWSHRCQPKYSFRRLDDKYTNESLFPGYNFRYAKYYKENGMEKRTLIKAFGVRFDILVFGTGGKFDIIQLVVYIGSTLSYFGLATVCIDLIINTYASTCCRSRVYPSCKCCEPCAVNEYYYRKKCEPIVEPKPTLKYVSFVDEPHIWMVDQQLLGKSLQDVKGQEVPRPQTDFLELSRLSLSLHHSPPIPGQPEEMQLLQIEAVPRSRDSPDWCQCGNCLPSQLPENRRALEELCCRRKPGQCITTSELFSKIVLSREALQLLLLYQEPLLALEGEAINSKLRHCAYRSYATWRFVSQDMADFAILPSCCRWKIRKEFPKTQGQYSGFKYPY

P2X purinoceptor 7 [18] = biological target: T3, P2X purinoceptor 7; assay: Antagonist activity at human P2X7 receptor expressed in human THP1 cells assessed as reduction in BzATP-induced IL-1beta levels preincubated for 30 mins followed by BzATP addition measured after 30 mins by ELISA; assay type: cell-based
P2X purinoceptor 7 [19] = biological target: T2, P2X purinoceptor 7; assay: Antagonist activity at mouse P2X7 receptor expressed in human 1321N1 cells assessed as reduction in agonist-induced intracellular Ca2+ levels preincubated for 3 mins followed by agonist addition measured up to 2 mins by Fluo-4 dye-based FLIPR assay; assay type: cell-based
P2X purinoceptor 7 [20] = biological target: T2, P2X purinoceptor 7; assay: Antagonist activity at P2X7 receptor in LPS/IFNc-differentiated Swiss mouse peritoneal macrophages assessed as inhibition of ATP-induced IL-1beta release preincubated for 30 mins followed by LPS stimulation for 4 hrs using cells treated with ATP for 30 mins by ELISA
Mus musculus [21] = assay: Anti-inflammatory activity in ip dosed Swiss Webster mouse assessed as inhibition of ATP-induced paw edema pretreated for 60 mins followed by ATP administration and measured after 30 mins; assay type: functional
Mus musculus [22] = assay: Anti-inflammatory activity in ip dosed Swiss Webster mouse assessed as inhibition of carrageenan-induced paw edema pretreated for 60 mins followed by carrageenan administration and measured after 30 mins; assay type: functional
P2X purinoceptor 7 [23] = biological target: T3, P2X purinoceptor 7; assay: Antagonist activity at human P2X7 receptor in PMA-differentiated THP-1 macrophages assessed as inhibition of ATP-induced IL-1beta release preincubated for 30 mins followed by ATP addition measured after 30 mins by ELISA
Mus musculus [24] = assay: Anti-inflammatory activity in po dosed Swiss Webster mouse assessed as inhibition of carrageenan-induced paw edema pretreated for 60 mins followed by carrageenan administration and measured after 60 mins; assay type: functional
Mus musculus [25] = assay: Anti-inflammatory activity in po dosed Swiss Webster mouse assessed as inhibition of ATP-induced paw edema pretreated for 60 mins followed by ATP administration and measured after 30 mins; assay type: functional

inhibition [1]: 90.1%
IC50 (P2X purinoceptor 7 [2]): 432 nM
IC50 (P2X purinoceptor 7 [3]): 552 nM
inhibition [4]: 78.9%
IC50 (P2X purinoceptor 7 [6]): 407 nM
IC50 (P2X purinoceptor 7 [7]): 343 nM
inhibition [8]: Dose-dependent effect
IC50 (P2X purinoceptor 7 [9]): 109 nM
Compound: CCOc1ccc(Nc2ccc(/C(=C3C=C/C(=[N+](/CC)Cc4cccc(S(=O)(=O)[O-])c4)C=C/3C)c3ccc(N(CC)Cc4cccc(S(=O)(=O)[O-])c4)cc3C)cc2)cc1.[Na+] [BRILLIANT BLUE G]
Activity (Peritoneal macrophage [5]): 13.22%

IC50 (P2X purinoceptor 7 [3]): 932 nM
inhibition [11]: Active
inhibition [13]: 94.1%
inhibition [14]: 86.3%
IC50 (P2X purinoceptor 7 [7]): 488 nM
inhibition [8]: Dose-dependent effect
IC50 (P2X purinoceptor 7 [9]): 341 nM
Compound: COc1ccc(-n2cc(CO)nn2)cc1
Activity (Peritoneal macrophage [10]): 9.7%
CC50 at 24 h [12]: 363 nM

IC50 (P2X purinoceptor 7 [15]): 20 to 150 nM
IC50 (P2X purinoceptor 7 [16]): 6.61 nM
IC50 (P2X purinoceptor 7 [17]): 20 to 150 nM
IC50 (P2X purinoceptor 7 [18]): 37.2 nM
IC50 (P2X purinoceptor 7 [19]): 20 to 150 nM
Compound: Clc1cccc(-n2nnnc2NCc2ccccc2Oc2ccccn2)c1Cl

IC50 (P2X purinoceptor 7 [20]): 112 nM
IC50 (P2X purinoceptor 7 [2]): 63.3 nM
IC50 (P2X purinoceptor 7 [3]): 86 nM
IC50 (P2X purinoceptor 7 [6]): 46.9 nM
IC50 (P2X purinoceptor 7 [23]): 82 nM
Compound: COc1ccc(CC(=O)NC(N/C(=N/C#N)Nc2cccc3ncccc23)C(C)(C)C)cc1OC (configuration not stated)
ID50 (Mus musculus [21]): 0.1058 µg/kg
ID50 (Mus musculus [22]): 0.1423 µg/kg
ID50 (Mus musculus [24]): 0.119 µg/kg
ID50 (Mus musculus [25]): 0.1097 µg/kg
